Patent US5698560A, “Imidazoquinazoline derivatives” (Kyowa Hakko Kogyo Co., Ltd., priority 1995, dated 1997)
Counter-ions that a name gives are not always drawn.

What was measured:
[1] = biological target: T1, PDE V (cGMP-specific PDE) (Canis lupus familiaris, UniProt O77746); test: inhibitory activity on PDE V derived from canine tracheal smooth muscle; type: biochemical; settings: 1 nM compound; substrate 1.0 μM [3H]cGMP; pH 7.2; 30° C., 10 to 30 minutes; inhibitor dissolved in 1.7% DMSO; read-out: PDE V Inhibitory activity, inhibition rate (%)
T1 construct: PDE V (cGMP-specific PDE) was purified from canine tracheal smooth muscle; from tissue; host or cells: canine tracheal smooth muscle
Method: The inhibitory activity on PDE derived from canine tracheal smooth muscle
According to the method of Torphy et al. [Mol. Pharmacol., 37, 206 (1990)], PDE V (cGMP-specific PDE) was purified from canine tracheal smooth muscle.
The activity was measured based on the method of Kincaid et al. [J. D. Corbin et al., Methods Enzymol., 159, 457 (1988), Academic Press, New York]. The measurement was carried out using, as a substrate, 1.0 μM [^3 H]cGMP, and the reaction was carried out in a buffer having the following composition:
50 mM N,N-bis(2-hydroxyethyl)-2-aminoethanesulfonic acid (pH 7.2), 1 mM MgCl2, 0.1 mg/ml soybean trypsin inhibitor
The reaction was started by addition of an enzyme and stopped by addition of hydrochloric acid after 10 to 30 minutes at 30° C. Thereafter, sodium hydroxide was added for neutralization and 5'-GMP was converted into guanosine using 5'-nucleotidase. The reaction solution was subjected to DEAE-Sephadex A-25 column. [^3 H]Guanosine was eluted with distilled water and the radioactivity was measured with a liquid scintillation counter. The inhibitor was dissolved in 1.7% DMSO.

rats = test: hypotensive effect in anesthetized rats (duodenal administration); type: in vivo, male Sprague-Dawley rat; settings: rat, i.d., within 30 minutes, average of N = 2
Method: The hypotensive effect in rats
After a male Sprague-Dawley rat anesthetized with urethane was fixed in the supine position, a cannula was inserted into trachea and the rat was artificially ventilated under the conditions of a tidal volume of […] and 60 breathes/min. The carotid artery and the duodenum were cannulated for measuring blood pressure and administering a drug, respectively. The drug was dissolved in distilled water and administered duodenally using the above cannula. Mean blood pressure (mBP) until 30 minutes after the drug-administration was measured and the maximum loweing rate (%) from the value before the drug-administration (100%) was determined. The average value of 2 samples was calculated in each dose. No change of mBP was observed during 30 minutes in case of administering distilled water.

Structure (SMILES) | inhibition at 0.001 µM [1] [%] | Hypotensive activity, Maximum lowering rate (%) of mean blood pressure (mBP) (rats; 0.1 mg/kg) [%] | Hypotensive activity, Maximum lowering rate (%) of mean blood pressure (mBP) (rats; 1 mg/kg) [%] | Hypotensive activity, Maximum lowering rate (%) of mean blood pressure (mBP) (rats; 10 mg/kg) [%]
CCn1c(=O)[nH]c2cc3c(NCc4ccccc4CN4CCOCC4)ncnc3cc21 [Compound 1, 3-Ethyl-8-[2-(morpholinomethyl)benzylamino]-2,3-dihydro-1H-imidazo[4,5-g]quinazolin-2-one.2 hydrochloride] | 74 |  |  | 
CCn1c(=S)[nH]c2cc3c(NCc4ccccc4CN4CCOCC4)ncnc3cc21 [Compound 4, 3-Ethyl-8-[2-(morpholinomethyl)benzylamino]-2,3-dihydro-1H-imidazo[4,5-g]quinazoline-2-thione.2 hydrochloride] | 97 | 9.0 | 21.5 | 25.1
CCn1c(=S)[nH]c2cc3c(NCc4ccc(CN5CCCCC5)cc4)ncnc3cc21 [Compound 15, 3-Ethyl-8-[4-(piperidinomethyl)benzylamino]-2,3-dihydro-1H-imidazo[4,5-g]quinazoline-2-thione.2 hydrochloride] | 63 |  |  | 
CCn1c(=O)[nH]c2cc3c(NCc4ccccc4OCCN4CCOCC4)ncnc3cc21 [Compound 21, 3-Ethyl-8-[2-(2-morpholinoethoxy)benzylamino]-2,3-dihydro-1H-imidazo[4,5-g]quinazolin-2-one.2 hydrochloride] | 29 |  |  | 
CCn1c(=S)[nH]c2cc3c(NCc4ccccc4OCCN4CCOCC4)ncnc3cc21 [Compound 29, 3-Ethyl-8-[2-(2-morpholinoethoxy)benzylamino]-2,3-dihydro-1H-imidazo[4,5-g]quinazoline-2-thione.2 hydrochloride] | 91 |  |  | 
CCn1c(=S)[nH]c2cc3c(NCc4ccccc4OCCN4CCN(C)CC4)ncnc3cc21 [Compound 32, 3-Ethyl-8-{2-[2-(4-methylpiperazin-1-yl)ethoxy]benzylamino}-2,3-dihydro-1H-imidazo[4,5-g]quinazoline-2-thione.3 hydrochloride] | 79 |  |  | 
CCn1c(=S)[nH]c2cc3c(NCc4ccc(OCCN5CCOCC5)cc4)ncnc3cc21 [Compound 42, 3-Ethyl-8-[4-(2-morpholinoethoxy)benzylamino]-2,3-dihydro-1H-imidazo[4,5-g]quinazoline-2-thione.2 hydrochloride] | 89 |  |  | 
CCn1c(=S)[nH]c2cc3c(NCc4ccccc4CN4CC=CCC4)ncnc3cc21 [Compound 71, 3-Ethyl-8-[2-(1,2,3,6-tetrahydropyridin-1-ylmethyl)benzylamino]-2,3-dihydro-1H-imidazo[4,5-g]quinazoline-2-thione.2 hydrochloride] | 97 | 16.1 | 22.8 | 23.2
CCOC(=O)C1CCN(Cc2ccccc2CNc2ncnc3cc4c(cc23)[nH]c(=S)n4CC)CC1 [Compound 75, 3-Ethyl-8-{2-[4-(ethoxycarbonyl)piperidin-1-ylmethyl]benzylamino}-2,3-dihydro-1H-imidazo[4,5-g]quinazoline-2-thione.2 hydrochloride] | 92 |  |  | 
CCOC(=O)C1CCN(Cc2ccccc2CNc2ncnc3cc4c(cc23)[nH]c(=O)n4CC)CC1 [Compound 76, 3-Ethyl-8-{2-[4-(ethoxycarbonyl)piperidin-1-ylmethyl]benzylamino}-2,3-dihydro-1H-imidazo[4,5-g]quinazolin-2-one.2 hydrochloride] | 88 |  |  | 
CCn1c(=S)[nH]c2cc3c(NCc4cccc(OCCCN5CCOCC5)c4)ncnc3cc21 [Compound 79, 3-Ethyl-8-[3-(3-morpholinopropoxy)benzylamino]-2,3-dihydro-1H-imidazo[4,5-g]quinazoline-2-thione.2 hydrochloride] | 95 |  |  | 
CCN(CC)CCCOc1cccc(CNc2ncnc3cc4c(cc23)[nH]c(=S)n4CC)c1 [Compound 80, 8-{3-[3-(Diethylamino)propoxy]benzylamino}-3-ethyl-2,3-dihydro-1H-imidazo[4,5-g]quinazoline-2-thione.2 hydrochloride] | 92 |  |  | 
